Assay results from PubChem BioAssay AID2060909 (Molecular Pharmacology Branch, DTP, NCI, 2025).

System: 362531-283-R-J2-PDC complex spheroid viability
Experiment: Anticancer human tumor 362531-283-R-J2-PDC patient-derived colon adenocarcinoma cell line growth inhibition [RAS]
Conditions: for IC50: curve of first compound; for viability, T/C: stronger effect = lower value
In short: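 Tumour cells grown as complex spheroids with HUVEC endothelial cells and mesenchymal stem cells, treated with RAS pathway inhibitor combinations. Each agent spans half-log steps from near clinical Cmax, or 10 microM where Cmax is unknown.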

[1] = second compound 0.000949 µM, first compound 0.0316 µM
[2] = second compound 0.000949 µM, first compound 0.1 µM
[3] = second compound 0.000949 µM, first compound 0.316 µM
[4] = second compound 0.000949 µM, first compound 1 µM
[5] = second compound 0.003 µM, first compound 0.0316 µM
[6] = second compound 0.003 µM, first compound 0.1 µM
[7] = second compound 0.003 µM, first compound 0.316 µM
[8] = second compound 0.003 µM, first compound 1 µM
[9] = second compound 0.00949 µM, first compound 0.0316 µM
[10] = second compound 0.00949 µM, first compound 0.1 µM
[11] = second compound 0.00949 µM, first compound 0.316 µM
[12] = second compound 0.00949 µM, first compound 1 µM
[13] = second compound 0.03 µM, first compound 0.0316 µM
[14] = second compound 0.03 µM, first compound 0.1 µM
[15] = second compound 0.03 µM, first compound 0.316 µM
[16] = second compound 0.03 µM, first compound 1 µM
[17] = second compound 0.0949 µM, first compound 0.0316 µM
[18] = second compound 0.0949 µM, first compound 0.1 µM
[19] = second compound 0.0949 µM, first compound 0.316 µM
[20] = second compound 0.0949 µM, first compound 1 µM
[21] = second compound 0.3 µM, first compound 0.0316 µM
[22] = second compound 0.3 µM, first compound 0.1 µM
[23] = second compound 0.3 µM, first compound 0.316 µM
[24] = second compound 0.3 µM, first compound 1 µM
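Note: spheroids exposed to the agents for 7 days before readout.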
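Throughout, for viability, T/C: luminescence viability as percent of DMSO vehicle control wells.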

CC1(C)CCC(Nc2ncc(C(F)(F)F)c(-c3c[nH]c4c(P(C)(C)=O)c(C#N)ccc34)n2)CN1 (stereo unspecified) + CCn1c(-c2cc(N3CCN(C)CC3)cnc2C(C)OC)c2c3cc(ccc31)-c1csc(n1)CC(NC(=O)C1CC1C)C(=O)N1CCCC(N1)C(=O)OCC(C)(C)C2
IC50 (second compound 0.000949 µM): > 300 nM
IC50 (second compound 0.003 µM): > 300 nM
IC50 (second compound 0.00949 µM): > 300 nM
IC50 (second compound 0.03 µM): > 300 nM
IC50 (second compound 0.0949 µM): > 300 nM
IC50 (second compound 0.3 µM): < 0.949 nM
viability, T/C (second compound 0.000949 µM, first compound 0.000949 µM): 104%
viability, T/C (second compound 0.000949 µM, first compound 0.003 µM): 97.3%
viability, T/C (second compound 0.000949 µM, first compound 0.00949 µM): 100%
viability, T/C (second compound 0.000949 µM, first compound 0.03 µM): 99.7%
viability, T/C (second compound 0.000949 µM, first compound 0.0949 µM): 93%
viability, T/C (second compound 0.000949 µM, first compound 0.3 µM): 95.1%
viability, T/C (second compound 0.003 µM, first compound 0.000949 µM): 104%
viability, T/C (second compound 0.003 µM, first compound 0.003 µM): 102%
viability, T/C (second compound 0.003 µM, first compound 0.00949 µM): 104%
viability, T/C (second compound 0.003 µM, first compound 0.03 µM): 97.1%
viability, T/C (second compound 0.003 µM, first compound 0.0949 µM): 101%
viability, T/C (second compound 0.003 µM, first compound 0.3 µM): 95.3%
viability, T/C (second compound 0.00949 µM, first compound 0.000949 µM): 103%
viability, T/C (second compound 0.00949 µM, first compound 0.003 µM): 110%
viability, T/C (second compound 0.00949 µM, first compound 0.00949 µM): 101%
viability, T/C (second compound 0.00949 µM, first compound 0.03 µM): 100%
viability, T/C (second compound 0.00949 µM, first compound 0.0949 µM): 105%
viability, T/C (second compound 0.00949 µM, first compound 0.3 µM): 104%
viability, T/C (second compound 0.03 µM, first compound 0.000949 µM): 101%
viability, T/C (second compound 0.03 µM, first compound 0.003 µM): 107%
viability, T/C (second compound 0.03 µM, first compound 0.00949 µM): 93.7%
viability, T/C (second compound 0.03 µM, first compound 0.03 µM): 92.9%
viability, T/C (second compound 0.03 µM, first compound 0.0949 µM): 98.6%
viability, T/C (second compound 0.03 µM, first compound 0.3 µM): 98.5%
viability, T/C (second compound 0.0949 µM, first compound 0.000949 µM): 85%
viability, T/C (second compound 0.0949 µM, first compound 0.003 µM): 82%
viability, T/C (second compound 0.0949 µM, first compound 0.00949 µM): 75.9%
viability, T/C (second compound 0.0949 µM, first compound 0.03 µM): 82.2%
viability, T/C (second compound 0.0949 µM, first compound 0.0949 µM): 82.2%
viability, T/C (second compound 0.0949 µM, first compound 0.3 µM): 102%
viability, T/C (second compound 0.3 µM, first compound 0.000949 µM): 40.9%
viability, T/C (second compound 0.3 µM, first compound 0.003 µM): 52%
viability, T/C (second compound 0.3 µM, first compound 0.00949 µM): 60.3%
viability, T/C (second compound 0.3 µM, first compound 0.03 µM): 58.7%
viability, T/C (second compound 0.3 µM, first compound 0.0949 µM): 68.5%
viability, T/C (second compound 0.3 µM, first compound 0.3 µM): 76.8%

CCN1CCN(Cc2ccc(Nc3ncc(F)c(-c4cc(F)c5nc(C)n(C(C)C)c5c4)n3)nc2)CC1 + CCn1c(-c2cccnc2C(C)OC)c2c3cc(ccc31)N1CCOC(CC(NC(=O)C(C(C)C)N(C)C(=O)C3(F)CCN(C(=O)C#CC(C)(C)N(C)C)CC3)C(=O)N3CCCC(N3)C(=O)OCC(C)(C)C2)C1
IC50 (second compound 0.000949 µM): > 1000 nM
IC50 (second compound 0.003 µM): 719 nM
IC50 (second compound 0.00949 µM): 876 nM
IC50 (second compound 0.03 µM): > 1000 nM
IC50 (second compound 0.0949 µM): > 1000 nM
IC50 (second compound 0.3 µM): 437 nM
viability, T/C (second compound 0.000949 µM, first compound 0.00316 µM): 96%
viability, T/C (second compound 0.000949 µM, first compound 0.01 µM): 92%
viability, T/C [1]: 67.3%
viability, T/C [2]: 83.8%
viability, T/C [3]: 66.4%
viability, T/C [4]: 46.7%
viability, T/C (second compound 0.003 µM, first compound 0.00316 µM): 108%
viability, T/C (second compound 0.003 µM, first compound 0.01 µM): 98.5%
viability, T/C [5]: 65.6%
viability, T/C [6]: 73%
viability, T/C [7]: 66.6%
viability, T/C [8]: 40.9%
viability, T/C (second compound 0.00949 µM, first compound 0.00316 µM): 105%
viability, T/C (second compound 0.00949 µM, first compound 0.01 µM): 105%
viability, T/C [9]: 55.3%
viability, T/C [10]: 74.4%
viability, T/C [11]: 59.8%
viability, T/C [12]: 45.7%
viability, T/C (second compound 0.03 µM, first compound 0.00316 µM): 112%
viability, T/C (second compound 0.03 µM, first compound 0.01 µM): 94.2%
viability, T/C [13]: 57.5%
viability, T/C [14]: 65.8%
viability, T/C [15]: 66.1%
viability, T/C [16]: 43.4%
viability, T/C (second compound 0.0949 µM, first compound 0.00316 µM): 103%
viability, T/C (second compound 0.0949 µM, first compound 0.01 µM): 88.3%
viability, T/C [17]: 53.4%
viability, T/C [18]: 69%
viability, T/C [19]: 65%
viability, T/C [20]: 46.6%
viability, T/C (second compound 0.3 µM, first compound 0.00316 µM): 100%
viability, T/C (second compound 0.3 µM, first compound 0.01 µM): 82.5%
viability, T/C [21]: 56.4%
viability, T/C [22]: 64.9%
viability, T/C [23]: 57.2%
viability, T/C [24]: 40.9%

NC1c2ccccc2OC12CCN(c1cnc3c(N4CCCc5ncccc54)n[nH]c3n1)CC2 (stereo unspecified) + CCn1c(-c2cc(N3CCN(C)CC3)cnc2C(C)OC)c2c3cc(ccc31)-c1csc(n1)CC(NC(=O)C1CC1C)C(=O)N1CCCC(N1)C(=O)OCC(C)(C)C2
IC50 (second compound 0.000949 µM): 2040 nM
IC50 (second compound 0.003 µM): 968 nM
IC50 (second compound 0.00949 µM): 450 nM
IC50 (second compound 0.03 µM): 152 nM
IC50 (second compound 0.0949 µM): 40.1 nM
IC50 (second compound 0.3 µM): < 31.6 nM
viability, T/C [1]: 93%
viability, T/C [2]: 97.3%
viability, T/C [3]: 88%
viability, T/C [4]: 75.2%
viability, T/C (second compound 0.000949 µM, first compound 3.16 µM): 34.6%
viability, T/C (second compound 0.000949 µM, first compound 10 µM): 15.8%
viability, T/C [5]: 95.2%
viability, T/C [6]: 90.3%
viability, T/C [7]: 81.8%
viability, T/C [8]: 50.8%
viability, T/C (second compound 0.003 µM, first compound 3.16 µM): 8.91%
viability, T/C (second compound 0.003 µM, first compound 10 µM): 4.54%
viability, T/C [9]: 91.7%
viability, T/C [10]: 96.4%
viability, T/C [11]: 67.1%
viability, T/C [12]: 11%
viability, T/C (second compound 0.00949 µM, first compound 3.16 µM): 4.02%
viability, T/C (second compound 0.00949 µM, first compound 10 µM): 2.36%
viability, T/C [13]: 94.4%
viability, T/C [14]: 70.9%
viability, T/C [15]: 13%
viability, T/C [16]: 7.15%
viability, T/C (second compound 0.03 µM, first compound 3.16 µM): 5.36%
viability, T/C (second compound 0.03 µM, first compound 10 µM): 2.24%
viability, T/C [17]: 56.5%
viability, T/C [18]: 25.1%
viability, T/C [19]: 6.77%
viability, T/C [20]: 4.69%
viability, T/C (second compound 0.0949 µM, first compound 3.16 µM): 4.6%
viability, T/C (second compound 0.0949 µM, first compound 10 µM): 2.33%
viability, T/C [21]: 16.5%
viability, T/C [22]: 9.81%
viability, T/C [23]: 5.67%
viability, T/C [24]: 4.89%
viability, T/C (second compound 0.3 µM, first compound 3.16 µM): 4.53%
viability, T/C (second compound 0.3 µM, first compound 10 µM): 2.17%
